What was measured:
[1] = system: procaspase-3, cleaved caspase-3, procaspase-8, cleaved caspase-8, PARP; experiment: Apoptosis-related molecular markers by Western Blot; format: cell-based, human; settings: A549 and SW620 cells, 24 hr or 48 hr; interferons 10 mcg/ml
Description: Thereafter, apoptosis-related molecular markers were monitored by Western Blot. The primary antibodies used were mouse monoclonal anti-beta-tubulin (1:2000, Cat #: CW0098A) and mouse monoclonal anti-GAPDH (1:2000, Cat #: CW0100A) (Kangwei Biotechnology, China); mouse monoclonal anti-PARP (1:1000, Cat #: sc-2007, Santa Cruz Biotechnology, Inc.); rabbit monoclonal anti-procaspase 3 (1:1000, Cat #: 9665), and rabbit polyclonal anti-cleaved caspase 3 (1:1000, Cat #: 9661) (Cell Signaling Technology, USA); goat polyclonal anti-procaspase 8 (1:1000, Cat #: sc-6136, Santa Cruz Biotechnology, Inc); rabbit monoclonal anti-cleaved caspase 8 (1:1000, Cat #: 9496) (Cell Signaling Technology, USA).

[2] = system: human hepatoma SMMC-7721 xenografts; experiment: rSIFN-co on human hepatoma SMMC-7721 xenografts in nude mice; settings: 5 mg/kg i.v.
Description: The test article was used without dilution. It was stored at 4° C. until thawed for injection.
The animals used were 4-6 weeks old male BALB/cA nu/nu mice, weighing about 23±2 g, obtained from the Shanghai Institute of Materia Medica (Shanghai, P.R. China). […] Animals were housed 6 to a cage. They were ear-marked with ear hole punch identification. The room temperature was maintained at 25° C.±+1° C. Lighting was set at 12 hr on and 12 hr off. Food was provided ad libitum. City tap water, filtered with a 5 micrometer (μm) filter, was provided to the animals ad libitum via water bottles.
The test article was administered in a volume of 0.05 ml-0.15 ml per mouse per treatment, depending on the group to which the animal was assigned. […] Normal saline was injected in a volume of 0.15 ml per mouse, which was used as vehicle control.
Animals were assigned to treatment groups randomly. Initially, all animals were placed in one large animal cage. For assignment to the study, they were later separately housed, with 6 animals per cage per treatment group. Groups 1 and 2 are Control groups in which the animals were each administered the vehicle every other day after the first treatment. […] Tumor growth was monitored by measuring the length and width of each tumor twice a week during the course of the study. Each animal was also weighed twice a week during the course of the study.
Before commencement of this study, the xenografts were passaged twice in nude mice. Under sterile conditions, well-grown tumors were cut into 1.5 mm^3 fragments and one such fragment was injected by trocar needle into the right flank of each study animal. […] Individual tumor size (length and width) was measured twice per week with microcalipers. Tumor volume (V) was calculated using the formula: V=(length×width^2)/2. Individual relative tumor volume (RTV) was calculated using the formula: RTV=Vt/V0, where Vt is the tumor volume on the day of measurement and V0 is the tumor volume on the day of first treatment. Therapeutic effect of the test article or control article was expressed in terms of T/C (%), using the formula: T/C (%)=(mean RTV of the treated group/mean RTV of the control group)×100%; and in terms of % Inhibition, using the formula: % Inhibition=100%−T/C %.

[3] = system: Human Colon Cancer HT-29 Xenografts; experiment: rSIFN-co on human colon cancer HT-29 xenografts in nude mice; format: in vivo; settings: 5 mg/kg i.v. days 1 and 10
[4] = system: human lung cancer SPC-A4 xenografts; settings: 5 mg/kg i.v. days 1 and 6
Description: Under sterile conditions, well-grown tumors were cut into 1.5 mm^3 fragments and one such fragment was injected by trocar needle into the right flank of each study animal. […] Individual tumor size (length and width) was measured twice per week with microcalipers. Tumor volume (V) was calculated using the formula: V=(length×width^2)/2. Individual relative tumor volume (RTV) was calculated using the formula: RTV=Vt/V0, where Vt is the tumor volume on the day of measurement and V0 is the tumor volume on the day of first treatment. Therapeutic effect of the test article or control article was expressed in terms of T/C (%), using the formula: T/C (%)=(mean RTV of the treated group/mean RTV of the control group)×100%; and in terms of % Inhibition, using the formula: % Inhibition=100%−T/C %.
The 1.5 mm^3 fragments were then used for s.c. implantation into the test animals. The body weight of the animals averaged 22±2 g at dose initiation.

[5] = system: Human Cervical Cancer Hela Xenografts; experiment: rSIFN-co on human cervical cancer Hela xenografts in nude mice; format: in vivo; settings: 5 mg/kg i.v. days 1 and 13
Description: Then 1.5 mm^3 fragments were prepared for s.c. implantation into the animals.

O=c1[nH]cc(F)c(=O)[nH]1 [5FU, reference compound]
level of cleaved caspase-3 and cleaved caspase-8 [1]: enhanced level | level of procaspase-3, procaspase-8 and PARP [1]: significant reduction

CO[C@@]12[C@H](COC(N)=O)C3=C(C(=O)C(C)=C(N)C3=O)N1C[C@@H]1N[C@@H]12 [MMC, Mitomycin C, reference compound]
TV(mm^3, mean ± SD) (D 0) ([2]; day 0): 125 ± 35 mm^3 | mean body weight ([2]; day 0): 23.9 gram | % Inhibition ([2]; day 21): 47.18% | TV(mm^3, mean ± SD) (D 21) ([2]; day 21): 621 ± 247 mm^3 | mean body weight ([2]; day 21): 25.4 gram | TV(mm^3, mean ± SD) (D 0) ([3]; day 0): 132 ± 22 mm^3 | % Inhibition ([3]; day 28): 62.9% | T/C (%) ([3]; day 28): 37.10% | TV(mm^3, mean ± SD) (D 28) ([3]; day 28): 395 ± 95 mm^3 | TV(mm^3, mean ± SD) (D 0) ([4]; day 0): 166 ± 42 mm^3 | % Inhibition ([4]; day 21): 72.87% | RTV (mean ± SD) ([4]; day 21): 11.54 ± 4.37 | T/C (%) ([4]; day 21): 27.13% | TV(mm^3, mean ± SD) (D 21) ([4]; day 21): 1831 ± 540 mm^3 | TV(mm^3, mean ± SD) (D 0) ([5]; day 0): 130 ± 28 mm^3 | % Inhibition ([5]; day 28): 60.08% | T/C (%) ([5]; day 28): 39.92% | TV(mm^3, mean ± SD) (D 28) ([5]; day 28): 676 ± 358 mm^3

From patent US10877024B2, “Methods of determining interferon having direct inhibitory effects on tumors and uses thereof” (SUPERLAB FAR EAST LIMITED, priority 2015, dated 2020)
